How the values were obtained:
Format in all cases: cell-based
[1] = test system: normal human gingival epithelioid cell line SG; experiment: Toxicity to normal human gingival epithelioid SG cells, Trypan blue exclusion; conditions: 20 μg/ml, 24 h
Method: (§1) Human normal human gingival epithelioid cell line SG cells were incubated for 24 h with ginsenoside M1 (5˜20 μg/ml), ginsenoside Rh2 (5˜20 μg/ml) or vehicle (0.1% DMSO). The live cell numbers were counted by Trypan blue exclusion method. The data were expressed as mean±SD; n=3. ** and *** indicate a significant difference at the level of p<0.01 and p<0.001, respectively, compared to vehicle-control cells. (One-way ANOVA with Dunnett's multiple comparisons test).
as §1, with “Plate 5×10^5” for “Human”, “SG per 6-cm dish in 2 ml of culture medium and were grown overnight at 37° C. in a 5% CO2 incubator. The” for “SG”, “vehicle. Each group contains a final DMSO concentration of 0.1%. Thereafter, the” for “vehicle (0.1% DMSO). The live”, “method. […]” for “method.”

[2] = test system: human oral cancer OECM-1 cells; experiment: Viability of human oral cancer OECM-1 cells, Trypan blue exclusion; conditions: 5˜20 μg/ml, 24 h
Method: Human oral cancer cell line SAS cells (FIG. 1A) or OECM-1 cells (FIG. 1B) were incubated for 24 h with ginsenoside M1 (5˜20 μg/ml), ginsenoside Rh2 (5˜20 μg/ml) or vehicle (0.1% DMSO). The live cell numbers were counted by Trypan blue exclusion method. The data were expressed as mean±SD; n=3. *, ** and *** indicate a significant difference at the level of p<0.05, p<0.01 and p<0.001, respectively, compared to vehicle-control cells. (One-way ANOVA with Dunnett's multiple comparisons test).
Plate 5×10^5 human oral cancer cells SAS per 6-cm dish in 2 ml of culture medium and were grown overnight at 37° C. in a 5% CO2 incubator. The cells were incubated for 24 h with ginsenoside M1 (5˜20 μg/ml), ginsenoside Rh2 (5˜20 μg/ml) or vehicle. Each group contains a final DMSO concentration of 0.1%. Thereafter, the cell numbers were counted by Trypan blue exclusion method. […] The data were expressed as mean±SD; n=3. *, ** and *** indicate a significant difference at the level of p<0.05, p<0.01 and p<0.001, respectively, compared to vehicle-control cells. (One-way ANOVA with Dunnett's multiple comparisons test).

[3] = test system: human oral cancer cells SAS; experiment: Colony formation of SAS cells; conditions: 5˜20 μg/ml, 10 days
Method: FIGS. 4A-4B show ginsenoside M1 reduced the colony formation ability of human oral cancer cells. Human oral cancer cell line SAS cells (FIG. 4A) or OECM-1 cells (FIG. 4B) were incubated for 10 days with ginsenoside M1 (5˜20 μg/ml) or vehicle (0.1% DMSO). The cells were fixed in 4% ice-cold paraformaldehyde and stained with 0.1% crystal violet, and the colonies were counted. The data were expressed as mean±SD; n=4. * and *** indicate a significant difference at the level of p<0.05 and p<0.001, respectively, compared to vehicle-control cells. (One-way ANOVA with Dunnett's multiple comparisons test).
Plate 150 human oral cancer cells SAS or OECM-1 per 6-cm dish in 3 ml of culture medium and were grown overnight at 37° C. in a 5% CO2 incubator. The cells were incubated for 10 days with ginsenoside M1 (5˜20 μg/ml) or vehicle. The cells were changed for fresh medium containing the same concentration of ginsenoside M1 at day 5. The cells were fixed in 4% ice-cold paraformaldehyde for 15 min at […], and stained with 0.1% crystal violet 10 min at room temperature. […] The data were expressed as mean±SD; n=4. * and *** indicate a significant difference at the level of p<0.05 and p<0.001, respectively, compared to vehicle-control cells. (One-way ANOVA with Dunnett's multiple comparisons test).

With `CC(C)=CCC[C@](C)(O[C@@H]1OC(CO)[C@@H](O)[C@@H](O)C1O)[C@H]1CC[C@]2(C)C1[C@H](O)CC1[C@@]3(C)CC[C@H](O)C(C)(C)C3CC[C@]12C` (stereo partly drawn) [ginsenoside M1, 20-O-β-D-glucopyranosyl-20(S)-protopanaxadiol] the “reduction of SG cell number compared to control cells” value [1] was 50%, the “cell numbers of human oral cancer OECM-1 cells” value [2] was “dose-dependently inhibited” and the “colony formation ability of SAS cells” value [3] was “dose-dependently inhibited”.
